Test results from patent US11166914B2, “Tumor therapeutic agent and kit containing gemcitabine liposome composition” (FUJIFILM Corporation, priority 2015, dated 2021).
Counter-ions that a name gives are not always drawn.

How the values were obtained:
[1] = system: Capan-1 cells of a human pancreatic cancer cell strain; experiment: Pharmacological test on Capan-1 subcutaneous transplantation tumor-bearing mouse model; type: in vivo, female nude mouse; conditions: single agent, no Abx; Gem 240 mg/kg or composition A 3 mg/kg as gemcitabine; tail vein once a week for 3 weeks from day 17
Method: The volume of a tumor was calculated using the following equation by measuring the major axis (a) and the minor axis (b) of the tumor with calipers. (a×b^2)×0.5 (where “a” is the major axis and “b” is the minor axis.) Equation: […]
Gemcitabine (hereinafter, also referred to as Gem), abraxane (hereinafter, also referred to as Abx), and a gemcitabine-contained liposome composition (hereinafter, also referred to as a composition A) were used as test substances.
Gem was prepared by dissolving gemcitabine hydrochloride (manufactured by TEVA) in physiological saline. Abx obtained by dissolving abraxane (manufactured by Celgene) in physiological saline was used. A gemcitabine-contained liposome composition prepared in Reference Example 1 was used.
1×10^7 Capan-1 cells of a human pancreatic cancer cell strain were transplanted subcutaneously into the flank of a female nude mouse to form subcutaneous tumors. The effect of controlling the subcutaneous tumor in combination administration of Abx and the composition A was evaluated using the volume of the tumor as an index. As test substances, a sucrose solution was used as a group 1, Gem was used as a group 2, a composition A was used as a group 3, Abx and Gem were respectively used as a group 4 and a group 5, and Abx and a composition A were respectively used as a group 6 and a group 7. Groups 1 to 5 are comparative examples and groups 6 and 7 are examples. All test substances were administered to the tail vein once a week from day 17 after transplantation for a total of 3 weeks.
Tukey's multiple comparisons test was performed as a statistical analysis, and a P value less than 5% among the groups was determined to indicate that there is a statistically significant difference. Graphpad Prism version 5.03 was used for data processing.

malignant tumors = conditions: gemcitabine single agent, cancer patients; N Engl J Med 2013, 369 (18), 1691-1703; cited from earlier work
[2] = gemcitabine single agent; background statement; cited from earlier work

Structure (SMILES): Nc1ccn([C@@H]2O[C@H](CO)[C@@H](O)C2(F)F)c(=O)n1 [Gem, gemcitabine hydrochloride]
- Number of days until tumor volume average value of 2,000 mm^3 is reached [1]: 52 days
- Tumor regression rate from start of medication [1]: N.R.
- Tumor volume average value on day 38 after transplantation [1]: 1397^a) mm^3
- Efficiency of single agent to a tumor (malignant tumors): 10%
- Median survival period (malignant tumors): 6.7 months
- Retention time in blood [2]: 20 min
